The record followed here is patent publication US20210115104A1, “AMYLIN ANALOGUES” (Zealand Pharma A/S, priority 2015, published 2021).

For series [1], the target named is T1, human amylin receptor 3 (hAMYR3), hCTR2 co-expressed with hRAMP3 (Homo sapiens, UniProt O60896+P30988).
T1 construct: expressed in transfected cells
T1 sequence (P30988 25-474): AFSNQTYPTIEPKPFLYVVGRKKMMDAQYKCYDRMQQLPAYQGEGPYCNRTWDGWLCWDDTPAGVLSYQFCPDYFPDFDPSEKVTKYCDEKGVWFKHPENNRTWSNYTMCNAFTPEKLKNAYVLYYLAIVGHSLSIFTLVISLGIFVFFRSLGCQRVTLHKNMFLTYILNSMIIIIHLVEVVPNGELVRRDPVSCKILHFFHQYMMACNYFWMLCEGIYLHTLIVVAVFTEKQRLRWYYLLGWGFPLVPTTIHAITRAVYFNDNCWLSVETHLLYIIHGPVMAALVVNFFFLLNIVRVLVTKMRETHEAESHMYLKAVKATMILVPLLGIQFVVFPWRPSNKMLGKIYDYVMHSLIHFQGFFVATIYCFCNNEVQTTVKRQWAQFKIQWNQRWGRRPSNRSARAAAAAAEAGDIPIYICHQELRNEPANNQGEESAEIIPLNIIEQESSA
T1 sequence (O60896 24-148 partner): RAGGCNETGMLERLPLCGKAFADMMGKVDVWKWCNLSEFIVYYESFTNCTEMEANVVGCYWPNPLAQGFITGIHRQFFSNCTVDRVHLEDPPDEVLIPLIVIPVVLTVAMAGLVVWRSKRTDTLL
As to the kind of experiment: hAMYR3 cAMP assay (AlphaScreen) in COS7 cells. It counts as cell-based. The note with it: cAMP induction, COS7 cells expressing hAMYR3; Table 1; read-out: hAMYR3 EC50. A digest of the protocol:
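EC50 values derive from 4PL curve fits of cAMP (AlphaScreen) in lysates of RAMP-naive COS7 cells stably carrying hCTR2 plus hRAMP3. Peptide dilution series were applied for 15 min at 37 °C in pH 7.4 Tyrode buffer containing 100 µM IBMX and 0.1% casein.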

In series [2] the target is T2, human calcitonin receptor (hCTR2) (Homo sapiens, UniProt P30988).
T2 construct: expressed in transfected cells
T2 sequence (P30988 25-474): T1 sequence (P30988 25-474)
As to the kind of experiment: hCTR2 cAMP assay (AlphaScreen) in COS7 cells. In kind it is cell-based. The note with it: cAMP induction, COS7 cells expressing hCTR2; Table 1; read-out: hCTR2 EC50. The procedure, abridged: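 cAMP induction, read by AlphaScreen after lysis, gives EC50 values via 4PL curve fitting. Peptides were applied at rising concentrations for 15 min at 37 °C, with IBMX and 0.1% casein in HEPES-buffered Tyrode pH 7.4, to COS7 cells (no endogenous RAMPs) stably expressing human CTR2.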

A short description of series [3]: Assessment of solubility (turbidity absorbance at 325 nm). In kind it is physicochemical. The settings on record: named as exception to solubility ≥1 mg/ml. The method, then:
A stock solution of the test peptide (2 mg/ml; determined from the weighed amount of peptide) in demineralized water adjusted to pH 2.5 with HCl was prepared, and aliquots were diluted 1:1 in 100 mM acetate buffer (pH 4.0 and pH 5.0), 100 mM histidine buffer (pH 6.0 and pH 7.0) and 100 mM phosphate buffer (pH 6.0, pH 7.0 and pH7.5), respectively, and loaded in a standard flat-bottom, non-sterile 96-well UV Microplate. The absorbance of samples (single samples, n=1) at 280 and 325 nm was measured in an absorbance-based plate reader, which was preheated to ambient temperature (typically 25° C.). The turbidity absorbance criterion for a peptide solubility of ≥1 mg/ml was an absorbance at 325 nm of s 0.02 absorbance units (which is 5 to 6 times the standard deviation of 8 buffer samples in a plate).

[4] abbreviates: phosphate buffer, pH 7.5, read-out: solubility at pH 7.5.

One may read the EC50 as the concentration at which the effect is half-maximal. Broadly, the solubility is the dissolved amount per volume that the medium holds.

Read-outs that look alike come from different tables or passages of the source. *1 amine or outer side, *2 acyl side, *3 side chain or, on linkers, in order; H or OH if unused. Where a SMILES comes first, the peptide text is derived from it. Bridges are numbered along the chain shown (N, C = ends). [ ]: non-standard residue; d: D form. The star is where a group is joined. C20 diacid = O=C(O)CCCCCCCCCCCCCCCCCCC(=O)*; γGlu = O=C(O)[C@H](CCC(=O)[*:2])N[*:1]; Hyp = O=C(O)[C@@H]1C[C@@H](O)CN1; NMeI = CC[C@H](C)[C@H](NC)C(=O)O; Sar = CNCC(=O)O

Turning to `CC[C@H](C)[C@@H](C(=O)N[C@@H](CC(C)C)C(=O)N[C@@H](CO)C(=O)N[C@@H](CO)C(=O)N[C@H](C(=O)N[C@@H](CCC(=O)O)C(=O)N[C@H](C(=O)NCC(=O)N[C@@H](CO)C(=O)N[C@@H](CO)C(=O)N[C@H](C(=O)N1C[C@H](O)C[C@H]1C(N)=O)[C@@H](C)O)C(C)C)[C@@H](C)O)N(C)C(=O)[C@H](C)NC(=O)CN(C)C(=O)[C@H](Cc1ccccc1)NC(=O)[C@H](CO)NC(=O)[C@H](CO)NC(=O)[C@H](CCCNC(=N)N)NC(=O)[C@@H](NC(=O)[C@H](CC(C)C)NC(=O)[C@H](Cc1ccccc1)NC(=O)[C@H](Cc1c[nH]cn1)NC(=O)[C@H](C)NC(=O)[C@H](CC(C)C)NC(=O)[C@H](CCCNC(=N)N)NC(=O)[C@H](CCC(=O)O)NC(=O)[C@@H](NC(=O)[C@H](C)NC(=O)[C@@H]1CSSC[C@H](NC(=O)[C@H](CCCNC(=N)N)NC(=O)CC[C@H](NC(=O)CCCCCCCCCCCCCCCCCCC(=O)O)C(=O)O)C(=O)NCC(=O)N[C@@H]([C@@H](C)O)C(=O)N[C@@H](C)C(=O)N[C@@H]([C@@H](C)O)C(=O)N1)[C@@H](C)O)C(C)C` [Compound 31, [19CD]-isoGlu-R-C( )-GTAT-C( )-ATERLAHFLVRSSF-Gly(Me)-A-Ile(Me)-LSSTEVGSST-Hyp-NH2] ({C20 diacid-γGlu}-RCGTATCATERLAHFLVRSSF[Sar]A[NMeI]LSSTEVGSST[Hyp]-NH2; disulfide 2-7), the concentration giving a half-maximal response (EC50) in series [1] was 0.29 nM; in series [2], 0.09 nM. Further, the solubility in series [3] (pH 7.0, read-out: solubility at pH 7.0) was less than 1000 µg/mL; in series [3] (setting [4]), less than 1000 µg/mL.
Consider `CC[C@H](C)[C@@H](C(=O)N[C@@H](CC(C)C)C(=O)N[C@@H](CO)C(=O)N[C@@H](CO)C(=O)N[C@H](C(=O)N[C@@H](CCC(=O)O)C(=O)N[C@H](C(=O)NCC(=O)N[C@@H](CO)C(=O)N[C@@H](CO)C(=O)N[C@H](C(=O)N1CCC[C@H]1C(N)=O)[C@@H](C)O)C(C)C)[C@@H](C)O)N(C)C(=O)[C@H](C)NC(=O)CN(C)C(=O)[C@H](Cc1ccccc1)NC(=O)[C@H](CO)NC(=O)[C@H](CO)NC(=O)[C@H](CCCNC(=N)N)NC(=O)[C@@H](NC(=O)[C@H](CC(C)C)NC(=O)[C@H](Cc1ccccc1)NC(=O)[C@H](Cc1c[nH]cn1)NC(=O)[C@H](C)NC(=O)[C@H](CC(C)C)NC(=O)[C@H](CCCNC(=N)N)NC(=O)[C@H](CCC(=O)O)NC(=O)[C@@H](NC(=O)[C@H](C)NC(=O)[C@@H]1CSSC[C@H](NC(=O)[C@H](CCCNC(=N)N)NC(=O)CC[C@H](NC(=O)CCCCCCCCCCCCCCCCCCC(=O)O)C(=O)O)C(=O)NCC(=O)N[C@@H]([C@@H](C)O)C(=O)N[C@@H](C)C(=O)N[C@@H]([C@@H](C)O)C(=O)N1)[C@@H](C)O)C(C)C` [Compound 38, [19CD]-isoGlu-R-C( )-GTAT-C( )-ATERLAHFLVRSSF-Gly(Me)-A-Ile(Me)-LSSTEVGSSTP-NH2] ({C20 diacid-γGlu}-RCGTATCATERLAHFLVRSSF[Sar]A[NMeI]LSSTEVGSSTP-NH2; disulfide 2-7), for which the figures for the EC50 in series [1] and in series [2] were 0.12 nM and 0.06 nM, respectively. Further, the solubility was less than 1000 µg/mL in series [3] (pH 6.0, read-out: solubility at pH 6.0) and less than 1000 µg/mL in series [3] (setting [4]).
